One data set has as its system cells. The settings on record: treatment with 25–100 µg/mL; cited from earlier work. The text has this: NO is a messenger molecular medium that provides multiple functions in biological tissues. Previous studies have shown that the production of NO is one of the potential mechanisms for the prevention and treatment of hypertension. Inhibiting ACE can prevent vasodilator breakdown and directly stimulate endothelial cells to produce NO [16]. We cultured EA.hy926 cells in the medium and evaluated the intracellular NO in order to see how VW-7 affected the generation of NO in these cells.

The next data set has as its system ACE. Conditions: cited from earlier work; for IC50: read-out: IC50 of ACE inhibition. The text has this:
The ACE inhibitory activity of the remaining peptides was low, and the inhibition rate was below 20%. Here, we measured the I ... || Based on the Lineweaver–Burk plot analysis, the inhibitory mechanism of VW-7 on ACE was investigated. According to Table 3, the Vmax value decreased and the Km value increased as the peptide concentration increased. […] When the peptide binds to ...

In a further data set the test system is EA.hy926 cells. Nature of the data set: Cell viability, CCK-8. The settings on record: 0–400 μg/mL, 24 h. It counts as cell-based, Human. As for the experimental part:
(§1) Human umbilical vein endothelial cells (EA.hy926) were grown in DMEM with 10% FBS and 1% penicillin-streptomycin at 37 °C in a humidified environment of 5% CO2.
(§2) Using a cell counting kit-8 (CCK-8) kit, the cytotoxicity of the peptide VNDYLNW in EA.hy926 was assessed. In 96-well cell culture plates, cells were inoculated at a density of 5 × 10^3/well. After 24 h of pre-incubation at 37 ℃ and 5% CO2, 50 µL of peptides with different concentrations were added to achieve the final concentrations of solution of 100, 200, 400, 600, 800, and 1000 µg/mL (using complete medium as the control) for 24 h. Following treatment, the culture medium was removed, 100 µL of medium (without FBS) was added, and 10 µL of CCK-8 was then added to each well. The culture was incubated for 1 h at 37 ℃ and 5% CO2. Finally, the light absorption value at 450 nm was detected by the microplate reader. Relative cell viability was calculated according to Equation (3):(3) Cell viability%=(A − A0)/A1 − A0 × 100 where A1 is the absorbance of cells that are not treated with peptides, A is the absorbance of cells that are treated with peptides, and A0 is the absorbance of the group without cells in the medium.

A further data set can be described thus: Cell viability, CCK-8. In kind it is cell-based, Human. Conditions: human, EA.hy926 cells. As for the experimental part: as §1, §2
For another data set, the system named is pepsin and trypsin. The data set can be described thus: Stability against simulated gastrointestinal digestion (pepsin, trypsin). In kind it is in vitro ADME. The procedure: The simulated gastrointestinal digestion method was applied according to Li et al., with some modifications. In brief, pH 2.0 was adjusted for the VW-7 solution (ultrapure water, c = 0.4 mg/mL). The peptide solution was mixed with pepsin (2%, w/w) for 2 h at 37 °C. The pH was changed to 7.0 after the process, and half of the liquid was withdrawn. The other half was then given trypsin (2%, w/w) and digested at 37 °C for 2 h. Finally, the reaction was terminated by a boiling water bath, and the ACE inhibition rate of the two-step reaction products was measured.
RP-HPLC was used to analyze the liquid obtained after digestion. The mobile phase A was water containing 0.1% TFA, and the mobile phase B was 100% ACN containing 0.1% TFA. The flow rate was set to 1 mL/min, the detection wavelength was 214 nm, and the column temperature was 30 °C.

Where two headings read alike, the source gives them in different places. Peptide text beside a SMILES is read from it.

Consider “VASVI [reported antihypertensive peptide from Olive Flounder Surimi]”, for which the “production of NO in cells” value in the data set on cells was “significantly increased”.

Turning to EVSQGRP, the “type of ACE inhibition” value in the data set with ACE (peptides from sea cucumber) is reported as “mixed-type inhibition”.

As to VDMF, the half-maximal inhibitory concentration (IC50) in the data set on ACE (peptide extracted from Coix prolamin) was 382 µM.

Turning to `CC(C)C[C@H](NC(=O)[C@H](Cc1ccc(O)cc1)NC(=O)[C@H](CC(=O)O)NC(=O)[C@H](CC(N)=O)NC(=O)[C@@H](N)C(C)C)C(=O)N[C@@H](CC(N)=O)C(=O)N[C@@H](Cc1c[nH]c2ccccc12)C(=O)O` [VNDYLNW] (H-VNDYLNW-OH), the “toxic effect on EA.hy926 cells” value is “no toxic effect” in the data set with EA.hy926 cells and “no cytotoxicity” in the data set with EA.hy926 cells (listed as VW-7). This compound also displayed a viability at 24 h, 600 µg/mL in the data set “Cell viability, CCK-8” (600 µg/mL, mean ± SD) of 92.4 ± 2.4%. In “Cell viability, CCK-8” (concentration above 600 µg/mL (up to 1000 µg/mL)), this compound returned a viability at 24 h of less than 80%. For the same compound, the “ACE inhibitory action after gastrointestinal digestion” value in the data set on pepsin and trypsin (0.4 mg/mL in ultrapure water, pH 2.0 pepsin 2% w/w 2 h 37 °C, then pH 7.0 trypsin 2% w/w 2 h 37 °C, read-out ACE inhibition rate, p > 0.05) is “remained essentially unaltered”. The “RP-HPLC peak area after two-step digestion” value in the data set on pepsin and trypsin (0.4 mg/mL, pepsin pH 2.0 2 h then trypsin pH 7.0 2 h, 37 °C, RP-HPLC, UV 214 nm) is on record as “did not change”.

For NMAINPSKENLCSTFCK, the “type of ACE inhibition” value in the data set with ACE (peptide from casein) was “mixed-type inhibition”.

With VTPVGVPKW, in the data set with ACE (peptide extracted from Black Cumin seeds), the IC50 was 1.8 µM.

For VSRHFASYAN, in the data set with ACE (peptides from sea cucumber), the “type of ACE inhibition” value was “mixed-type inhibition”.

With SAAVGSP, in the data set with ACE (peptides from sea cucumber), the “type of ACE inhibition” value is listed as “mixed-type inhibition”.

In general, IC50 refers to the point on the concentration scale where inhibition reaches its midpoint. A word on the viability: it is a read-out of living cells in per cent, often relative to untreated cells. Read a low viability as more harm to the cells.

Source of the values: paper PMC10224335, “Purification, Identification, and Inhibitory Mechanisms of a Novel ACE Inhibitory Peptide from Torreya grandis” (Nutrients, 2023).
